Reference: patent publication US10611777B2, “Imidazopyridazine compounds and their use” (HUTCHISON MEDIPHARMA LIMITED, priority 2014, dated 2020)
≈ marks a conversion by molar mass, not a printed value. One block for each compound: values may come before it.

How the values were obtained:
[1] = system: Wistar rats with established type II collagen-induced arthritis; test: Rat collagen II induced arthritis (CIA) model; assay type: in vivo
Description: Rat collagen induced arthritis is an experimental model of polyarthritis that has been widely used for nonclinical testing of numerous anti-arthritic agents that are either under nonclinical or clinical investigation or are currently used as therapeutics in this disease.
Wistar rats were immunized intradermally with 200 μg bovine collagen II emulsified in Freund's incomplete adjuvant (IFA, Sigma, US) on day 0 and day 7. The hind paw volumes were measured before and after the immunization. […] The naive group was not administered. YiSaiPu (10 mg/kg), a human tumor necrosis factor receptor p75 Fc fusion protein, was administered with intraperitoneal injection on days 10, 12 and 14 as a positive control. The study was terminated on day 18.

[2] = system: anti-IgD induced B cell activation; test: Anti-IgD antibody induced B cells activation in rat whole blood (ex vivo after oral dosing)
Description: Activation of B cells (B220+) in rat whole blood with anti-IgD antibody leading to activation via Ig receptors is known to involve PI3K pathways and sensitive to modulation by PI3Kδ inhibitors. A pharmacodynamics assay was developed to assess activity of PI3Kδ inhibitors ex vivo following oral administration of inhibitors to rats.
Wistar rats (female, 6-8 weeks old) were used in the experiments. The dose dependency, time course study and PKPD relationship of compound 4 were conducted in normal Wistar rats. […] The control group (6 rats) was treated with the vehicle alone. […] The heparin anti-coagulated blood was mixed with anti-rat-IgD, then was incubated at 37° C. under 5% CO2 overnight. Fluorescence signal for CD86 on B220 (B cells) positive cells was detected using a flow cytometer (BD FACSCalibur, BD Biosciences) and data were analyzed by CellQuest software. Plasma was collected to measure compound 4 levels.

PI3K-α (p110α/p85α) = PI3K-α (p110α/p85α) (Homo sapiens (Human), UniProt P42336); test: Fluorescent determination of PI3K enzyme activity (Transcreener KINASE Assay), PI3K-α; assay type: biochemical; conditions: inhibition rate at 1 μM
Description: Inhibition rates were calculated as follow: IH %=(ADP amount under 2% DMSO well−ADP amount under test compound well)/ADP amount under 2% DMSO well×100%.

PI3K-β (p110β/p85α) = PI3K-β (p110β/p85α) (Homo sapiens (Human), UniProt P42338); test: Fluorescent determination of PI3K enzyme activity (Transcreener KINASE Assay), PI3K-β; assay type: biochemical; conditions: inhibition rate at 1 μM;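 also: Far-red fluorescence polarization immunoassay detecting ADP produced by the kinase, 80 min enzyme reaction at room temperature, inhibition relative to ADP formed in 2% DMSO control wells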
Description: (§1) PI3K kinases including p110α/p85α and p110γ were purchased from Invitrogen, p110δ/p85α and p110β/p85α were from Millipore.
(§2) It is a universal, homogenous, high throughput screening (HTS) technology using a far-red, competitive fluorescence polarization immunoassay based on the defection of ADP to monitor the activity of enzymes that catalyze group transfer reactions. […] The reaction mixture was added into desired wells of a 96-well plate. The plate was sealed and incubated for 80 min at room temperature. • 2) Next, 25 uL ADP detection mix was added into each well. The plate was sealed again and incubated for 60 min at room temperature. Then fluorescence polarization was measured by Tecan Infinite F500 Reader.
(§3) Data was analyzed and IC50 values were generated using the add-in software for Microsoft Excel, Xlfit™ (version 5.3).

SU-DHL-6 cell line = test: In vitro cell proliferation assay in SU-DHL-6 cell line; assay type: cell-based; conditions: SU-DHL-6, 72 h, CCK-8
Description: Growth inhibition assays were carried out using 10% FBS supplemented media. Cells were seeded at a concentration of 15000 cells/well in a 96-well plate. Test compound dilution at different concentrations (final concentrations of the test compound: 1 uM, 0.3 uM, 0.1 uM, 0.037 uM, 0.012 uM, 0.0041 uM, 0.0014 uM and 0.0005 uM) were added after 24 hours. Growth was assessed using Cell Counting Kit-8 (CCK-8) (Dojindo, Cat # CK04) after the test compound were incubated for 72 h. Absorbance was read at the wave length 450 nm on Multiskan MK3 machine (Thermo).
as §3

[3] = system: AKT phosphorylation (p-AKT Ser473) in Ramos cells; test: Inhibition of AKT phosphorylation in Ramos cell line; assay type: cell-based; conditions: anti-IgM stimulated
Description: 6×10^4/mL Ramos cells (ATCC, CRL-1596; cells were cultured in RPMI1640 media with 10% FBS) were seeded into a 96-well plate (Bookman Dickinson, No. 356692) at 80 uL/well, 4,800 cells/well. After incubations for 3 hr at 37° C. under 5% CO2, Ramos cells were treated with 10 uL/well various concentrations of test compound (final concentrations of the test compound: 1 uM, 0.3 uM, 0.1 uM, 0.037 uM, 0.012 uM, 0.0041 uM, 0.0014 uM and 0.0005 uM) or 0.3% DMSO for 30 min, and then were stimulated with 10 uL/well 1 ug/ml Anti-IgM (Jackson Immunoresearch, 709-006-073) for 15-20 min. • 1) Cells were fixed with 100 μL of 4% pre-warmed Paraformaldehyde (2% final concentration), and incubated for 45 min at room temperature. • 2) The paraformaldehyde solution was removed. 100 μL of ice-cold methanol was added into each well and the plate was left at 4° C. for 30 min. • 3) The cells were washed for three times with 160 μPBS. • 4) 40 μL 1:350 dilution of Rabbit anti-p-AKT(Ser^473) antibody (Cell Signaling Technology, 4060 L) in antibody dilution buffer (1% BSA, in PBS) were added into each well. […]
as §3

PI3K-δ (p110δ/p85α) = PI3K-δ (p110δ/p85α) (Homo sapiens (Human), UniProt O00329); test: Fluorescent determination of PI3K enzyme activity (Transcreener KINASE Assay), PI3K-δ; assay type: biochemical; conditions: for PI3K-δ IH%: inhibition rate at 1 μM
Description: as §1, §2, §3

PI3K-γ (p110γ) = PI3K-γ (p110γ) (Homo sapiens (Human), UniProt P48736); test: Fluorescent determination of PI3K enzyme activity (Transcreener KINASE Assay), PI3K-γ; assay type: biochemical; conditions: inhibition rate at 1 μM;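 also: p110γ enzyme reaction for 80 min at room temperature, ADP formed measured by far-red competitive fluorescence polarization immunoassay, inhibition relative to wells with 2% DMSO only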
Description: as §1, §2, §3

[4] = system: PI3Kδ signaling in basophils from human whole blood; test: Inhibition of PI3Kδ signaling in basophils from human whole blood; assay type: cell-based; conditions: anti-IgE stimulated, CD63
Description: • 1) Heparinized human whole blood was mixed and pipetted into the 96 well v-bottom plate, 100 μL per well. • 2) 10 μL of stimulation buffer (1 mg/mL stock, final concentration of Recombinant human IL-3; 20 ng/mL) was added to the whole blood samples of each well and vortex gently. The samples were incubated for 20 min at 37° C. • 3) 10 uL/well of test compound dilution (final concentrations of the test compound in well: 1 uM, 0.3 uM, 0.1 uM, 0.037 uM, 0.012 uM, 0.0041 uM, 0.0014 uM and 0.0005 uM) or vehicle (0.2% DMSO) was added into each well of the plate and the plate was incubated for 1.5 h at 37° C. • 4) 100 μL of the Goat anti-human IgE (1 mg/mL stock, final concentration of IgE: 0.31 ug/mL) working solution was added into each well of the plate. Vortex all the wells once more and incubate for 20 min at 37° C. • 5) Labeling with staining antibody: Degranulation was stopped by incubating the samples on ice for 5 min. 6 μL of staining antibody mixture (anti-CD63-FITC and anti-IgE-PE) was added into each well. […] The plate was incubated in a covered ice bath until analysis. • 10) Flow cytometric analysis: Cells were analyzed by flow cytometry using the blue-green excitation light (488 nm argon-ion laser, FACSCalibur, CELLQuest software).
as §3

Chain of PI3K-β (p110β/p85α) (P42338 whole entry, species assumed): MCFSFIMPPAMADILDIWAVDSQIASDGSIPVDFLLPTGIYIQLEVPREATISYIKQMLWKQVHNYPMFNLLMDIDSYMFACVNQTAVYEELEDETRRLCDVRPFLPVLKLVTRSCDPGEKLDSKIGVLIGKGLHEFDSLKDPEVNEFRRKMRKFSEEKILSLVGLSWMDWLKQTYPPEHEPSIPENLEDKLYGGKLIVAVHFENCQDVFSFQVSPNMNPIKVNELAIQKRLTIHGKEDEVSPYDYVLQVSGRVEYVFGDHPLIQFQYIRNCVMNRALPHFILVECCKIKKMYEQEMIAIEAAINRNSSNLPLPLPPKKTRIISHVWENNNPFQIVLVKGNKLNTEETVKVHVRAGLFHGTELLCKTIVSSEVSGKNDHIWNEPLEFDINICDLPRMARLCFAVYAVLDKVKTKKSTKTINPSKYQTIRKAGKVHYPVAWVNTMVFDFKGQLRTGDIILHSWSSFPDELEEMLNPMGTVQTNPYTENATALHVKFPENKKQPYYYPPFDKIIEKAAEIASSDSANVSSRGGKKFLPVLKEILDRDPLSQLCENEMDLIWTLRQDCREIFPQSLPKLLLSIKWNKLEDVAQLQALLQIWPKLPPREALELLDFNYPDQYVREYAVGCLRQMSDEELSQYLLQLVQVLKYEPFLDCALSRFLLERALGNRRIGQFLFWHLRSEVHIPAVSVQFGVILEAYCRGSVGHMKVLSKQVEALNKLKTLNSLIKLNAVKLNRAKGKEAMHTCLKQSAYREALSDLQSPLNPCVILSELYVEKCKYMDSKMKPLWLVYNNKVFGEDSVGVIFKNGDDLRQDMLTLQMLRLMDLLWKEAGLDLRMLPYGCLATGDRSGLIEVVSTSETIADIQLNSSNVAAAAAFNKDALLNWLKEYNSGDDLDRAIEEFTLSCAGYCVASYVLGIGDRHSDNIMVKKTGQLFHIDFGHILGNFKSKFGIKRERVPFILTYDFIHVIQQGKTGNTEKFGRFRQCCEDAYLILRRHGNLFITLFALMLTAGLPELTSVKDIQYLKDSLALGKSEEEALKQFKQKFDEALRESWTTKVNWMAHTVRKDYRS
Chain of PI3K-β (p110β/p85α) (P27986 whole entry partner, species assumed): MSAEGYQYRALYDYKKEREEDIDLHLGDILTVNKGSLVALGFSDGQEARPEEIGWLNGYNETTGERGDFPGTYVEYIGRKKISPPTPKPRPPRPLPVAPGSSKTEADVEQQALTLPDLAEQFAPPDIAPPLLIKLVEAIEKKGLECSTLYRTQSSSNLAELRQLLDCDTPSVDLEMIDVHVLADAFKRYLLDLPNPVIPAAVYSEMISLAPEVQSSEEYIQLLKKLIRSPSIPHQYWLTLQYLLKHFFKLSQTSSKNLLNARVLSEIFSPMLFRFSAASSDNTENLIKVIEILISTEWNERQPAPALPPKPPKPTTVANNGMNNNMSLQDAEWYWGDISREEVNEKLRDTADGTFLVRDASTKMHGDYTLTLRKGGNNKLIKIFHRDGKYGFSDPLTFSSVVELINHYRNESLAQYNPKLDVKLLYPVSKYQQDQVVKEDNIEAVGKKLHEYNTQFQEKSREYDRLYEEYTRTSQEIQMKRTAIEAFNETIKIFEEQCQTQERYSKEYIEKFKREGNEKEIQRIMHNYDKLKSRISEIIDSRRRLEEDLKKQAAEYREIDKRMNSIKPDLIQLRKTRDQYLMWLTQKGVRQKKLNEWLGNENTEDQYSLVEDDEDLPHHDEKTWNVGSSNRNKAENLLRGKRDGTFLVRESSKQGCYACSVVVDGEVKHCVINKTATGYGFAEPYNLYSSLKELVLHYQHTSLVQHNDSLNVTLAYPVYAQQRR
Chain of PI3K-α (p110α/p85α) (P42336 whole entry, species assumed): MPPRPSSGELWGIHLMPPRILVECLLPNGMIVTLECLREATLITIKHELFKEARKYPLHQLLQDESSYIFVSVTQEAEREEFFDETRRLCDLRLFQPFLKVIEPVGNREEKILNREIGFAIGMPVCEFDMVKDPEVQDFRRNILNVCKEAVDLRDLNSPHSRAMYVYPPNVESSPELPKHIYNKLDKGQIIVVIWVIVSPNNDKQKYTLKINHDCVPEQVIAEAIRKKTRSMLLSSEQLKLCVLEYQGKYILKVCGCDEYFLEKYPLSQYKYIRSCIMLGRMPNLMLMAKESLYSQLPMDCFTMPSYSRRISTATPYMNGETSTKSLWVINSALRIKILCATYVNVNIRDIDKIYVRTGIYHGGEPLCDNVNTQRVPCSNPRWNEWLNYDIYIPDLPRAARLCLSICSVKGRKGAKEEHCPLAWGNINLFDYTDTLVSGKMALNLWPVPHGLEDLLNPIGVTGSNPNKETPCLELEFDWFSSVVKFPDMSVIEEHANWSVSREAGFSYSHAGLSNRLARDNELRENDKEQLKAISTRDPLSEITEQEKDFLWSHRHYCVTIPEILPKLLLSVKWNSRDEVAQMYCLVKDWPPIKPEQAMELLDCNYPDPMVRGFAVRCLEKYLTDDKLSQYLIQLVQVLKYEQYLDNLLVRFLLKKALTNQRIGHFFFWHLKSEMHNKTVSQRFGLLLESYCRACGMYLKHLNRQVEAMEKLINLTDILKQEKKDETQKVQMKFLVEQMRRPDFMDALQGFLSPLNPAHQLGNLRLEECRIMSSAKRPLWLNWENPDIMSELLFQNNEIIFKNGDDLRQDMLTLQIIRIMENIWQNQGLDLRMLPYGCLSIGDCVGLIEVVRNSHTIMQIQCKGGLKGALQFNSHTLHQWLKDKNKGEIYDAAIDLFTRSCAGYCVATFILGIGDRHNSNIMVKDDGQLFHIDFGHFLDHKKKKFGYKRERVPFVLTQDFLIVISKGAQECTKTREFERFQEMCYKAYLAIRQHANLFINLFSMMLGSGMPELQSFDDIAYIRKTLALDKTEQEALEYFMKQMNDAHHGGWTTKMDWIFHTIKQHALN
Chain of PI3K-α (p110α/p85α) (P27986 whole entry partner, species assumed): as the sequence (P27986 whole entry partner, species assumed) above
Chain of PI3K-δ (p110δ/p85α) (O00329 whole entry, species assumed): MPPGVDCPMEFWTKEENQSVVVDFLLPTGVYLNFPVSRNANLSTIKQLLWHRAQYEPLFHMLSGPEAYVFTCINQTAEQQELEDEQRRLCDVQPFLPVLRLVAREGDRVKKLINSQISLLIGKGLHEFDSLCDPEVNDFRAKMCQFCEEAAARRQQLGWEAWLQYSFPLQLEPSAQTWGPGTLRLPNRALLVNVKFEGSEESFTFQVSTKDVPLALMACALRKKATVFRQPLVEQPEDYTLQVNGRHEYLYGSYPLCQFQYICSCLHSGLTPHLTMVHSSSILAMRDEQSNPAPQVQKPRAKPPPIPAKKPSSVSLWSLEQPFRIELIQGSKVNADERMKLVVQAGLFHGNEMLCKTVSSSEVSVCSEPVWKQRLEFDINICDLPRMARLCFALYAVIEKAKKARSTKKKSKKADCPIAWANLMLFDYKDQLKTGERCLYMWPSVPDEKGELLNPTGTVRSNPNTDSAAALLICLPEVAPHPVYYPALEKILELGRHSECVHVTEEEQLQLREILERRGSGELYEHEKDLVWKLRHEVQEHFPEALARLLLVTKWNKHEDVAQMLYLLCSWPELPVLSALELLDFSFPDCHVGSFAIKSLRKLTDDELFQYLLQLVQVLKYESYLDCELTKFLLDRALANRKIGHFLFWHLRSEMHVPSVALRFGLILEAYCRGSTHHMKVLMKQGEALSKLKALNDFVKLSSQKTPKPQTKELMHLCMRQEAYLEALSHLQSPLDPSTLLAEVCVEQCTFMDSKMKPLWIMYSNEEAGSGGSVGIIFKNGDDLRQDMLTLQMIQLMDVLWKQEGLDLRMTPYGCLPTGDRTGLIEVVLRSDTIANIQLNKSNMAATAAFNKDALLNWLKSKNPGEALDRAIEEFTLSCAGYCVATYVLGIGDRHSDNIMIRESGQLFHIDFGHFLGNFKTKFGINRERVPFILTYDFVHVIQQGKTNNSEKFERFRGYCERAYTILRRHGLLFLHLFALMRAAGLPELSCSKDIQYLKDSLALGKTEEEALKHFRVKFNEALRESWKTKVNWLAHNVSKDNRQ
Chain of PI3K-δ (p110δ/p85α) (P27986 whole entry partner, species assumed): as the sequence (P27986 whole entry partner, species assumed) above
Chain of PI3K-γ (p110γ) (P48736 whole entry, species assumed): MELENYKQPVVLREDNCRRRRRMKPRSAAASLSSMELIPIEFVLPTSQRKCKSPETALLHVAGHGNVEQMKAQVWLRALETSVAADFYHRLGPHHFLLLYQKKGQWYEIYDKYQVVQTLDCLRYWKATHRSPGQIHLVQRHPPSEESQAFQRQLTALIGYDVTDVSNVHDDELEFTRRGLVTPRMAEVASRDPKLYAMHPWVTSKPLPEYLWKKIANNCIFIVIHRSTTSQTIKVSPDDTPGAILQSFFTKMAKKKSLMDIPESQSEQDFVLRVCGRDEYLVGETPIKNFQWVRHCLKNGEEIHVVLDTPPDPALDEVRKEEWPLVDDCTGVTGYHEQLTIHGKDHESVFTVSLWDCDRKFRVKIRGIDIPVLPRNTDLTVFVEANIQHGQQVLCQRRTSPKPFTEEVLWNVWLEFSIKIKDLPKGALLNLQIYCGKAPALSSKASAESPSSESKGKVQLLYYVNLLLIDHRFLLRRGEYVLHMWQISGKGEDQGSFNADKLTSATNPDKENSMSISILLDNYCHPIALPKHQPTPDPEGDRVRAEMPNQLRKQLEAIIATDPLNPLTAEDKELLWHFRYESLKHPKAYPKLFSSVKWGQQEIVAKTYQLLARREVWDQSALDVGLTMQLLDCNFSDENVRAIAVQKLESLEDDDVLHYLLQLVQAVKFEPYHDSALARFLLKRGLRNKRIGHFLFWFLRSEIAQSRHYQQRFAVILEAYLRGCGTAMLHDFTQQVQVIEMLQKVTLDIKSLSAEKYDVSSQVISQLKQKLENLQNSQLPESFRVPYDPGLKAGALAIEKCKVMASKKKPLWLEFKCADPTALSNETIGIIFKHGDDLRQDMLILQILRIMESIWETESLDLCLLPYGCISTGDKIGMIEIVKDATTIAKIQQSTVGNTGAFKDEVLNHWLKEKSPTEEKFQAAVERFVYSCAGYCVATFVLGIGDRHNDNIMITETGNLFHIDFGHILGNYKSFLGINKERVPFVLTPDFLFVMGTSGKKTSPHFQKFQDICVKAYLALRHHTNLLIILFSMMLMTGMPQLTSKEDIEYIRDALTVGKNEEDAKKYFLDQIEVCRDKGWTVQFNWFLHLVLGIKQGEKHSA

SMILES: C[C@H](Nc1ncnc(N)c1C#N)c1cc2ncc(Cl)n2nc1-c1ccccc1 [Compound 4, (S)-4-amino-6-((1-(3-chloro-6-phenylimidazo[1,2-b]pyridazin-7-yl)ethyl)amino)pyrimidine-5-carbonitrile]
- mean paw volume at the end of the treatment period compared to vehicle-treated diseased animals ([1]; PO QD days 10-16, p<0.01, all doses except lowest dose 0.03 mg/kg): significantly decreased
- effects on the parameters associated with established type II collagen-induced arthritis ([1]; daily oral treatment): dose-dependent beneficial effects
- EC50 ([2]; Rattus norvegicus, B-cell, po, at 2 hr post-dose, read-out: EC50 (corresponding plasma concentration)): 1.49 ng/mL (≈ 3.8 nM)
- anti-IgD induced B cell activation in rat whole blood, ex vivo ([2]; oral, dose range 0.01 to 3 mg/kg, p<0.01): inhibited anti-IgD induced B cell activation in rat whole blood, ex vivo, in a dose- and time-dependent manner

SMILES: C[C@H](Nc1ncnc(N)c1-c1nn[nH]n1)c1cc2ncc(Cl)n2nc1-c1ccccc1 [Compound 21]
- PI3K-α IH% (PI3K-α (p110α/p85α)): 21.7%

SMILES: Cc1cnc2cc([C@H](C)Nc3ncnc(N)c3C#N)c(-c3ccccc3)nn12 [Compound 22]
- PI3K-β IH% (PI3K-β (p110β/p85α)): 76.7%
- PI3K-α IH% (PI3K-α (p110α/p85α)): 13.6%

SMILES: C[C@H](Nc1ncnc(N)c1C#N)c1cc2ncc(F)n2nc1-c1ccccc1 [Compound 78, (S)-4-amino-6-((1-(3-fluoro-6-phenylimidazo[1,2-b]pyridazin-7-yl)ethyl)amino)pyrimidine-5-carbonitrile]
- PI3K-β IH% (PI3K-β (p110β/p85α)): 50.1%
- IC50 (PI3K-δ (p110δ/p85α)): 0.001 µM
- IC50 [4]: 0.01 µM
- IC50 ([3]; Homo sapiens): 0.007 µM

Second part, the compound after the results:

- IC50 (SU-DHL-6 cell line): 0.078 µM
- PI3K-β IH% (PI3K-β (p110β/p85α)): 28.7%
- PI3K-α IH% (PI3K-α (p110α/p85α)): 3.2%
- IC50 [3]: 0.012 µM
SMILES: Cc1cnc2cc([C@H](C)Nc3ncnc4[nH]cnc34)c(-c3ccccc3)nn12 [Compound 23]

- PI3K-β IH% (PI3K-β (p110β/p85α)): −7.1%
- PI3K-δ IH% (PI3K-δ (p110δ/p85α)): 1.0%
- PI3K-γ IH% (PI3K-γ (p110γ)): 31.7%
SMILES: C[C@@H](Nc1ncnc(N)c1C#N)c1cc2ncc(Cl)n2nc1-c1ccc2scnc2c1 [Compound 75]

- PI3K-β IH% (PI3K-β (p110β/p85α)): 54.9%
- PI3K-δ IH% (PI3K-δ (p110δ/p85α)): 48.9%
- PI3K-γ IH% (PI3K-γ (p110γ)): −14.3%
SMILES: C[C@H](Nc1ncnc(N)c1C#N)c1cc2ncc(Cl)n2nc1-c1ccc2ccn(C)c2c1 [Compound 76]
